The numbers were not newly measured in US6579705B2, “Process for preparing non-proteinogenic L-amino acids” (Consortium fur Elektrochemische Industrie GmbH, priority 2001, dated 2003), which cites them from elsewhere.

Each structure is given as a SMILES string.

For the data set the following is noted: cited from earlier work.

As for `CC(=O)OC[C@H](N)C(=O)O` [O-Acetyl-L-serine], where the note is “pH 4.0”, the stability toward isomerization result was “stable”. In addition, the “rate of isomerization to N-acetyl-L-serine” value (pH 7.6) is 1 %×min^−1.
